Data taken from ChEMBL document CHEMBL4219273, “Discovery of a novel olefin derivative as a highly potent and selective acetyl-CoA carboxylase 2 inhibitor with in vivo efficacy” (Bioorg Med Chem Lett, 2018).

Assays:
Homo sapiens = species on record: Homo sapiens; assay: Selectivity ratio of IC50 for recombinant human ACC1 to IC50 for recombinant human ACC2
Cytochrome P450 2D6 = Cytochrome P450 2D6 (Homo sapiens, UniProt P10635); assay: Inhibition of CYP2D6 (unknown origin); type: ADME
Cytochrome P450 3A4 = Cytochrome P450 3A4 (Homo sapiens, UniProt P08684); assay: Inhibition of CYP3A4 (unknown origin); type: ADME
Chain of Cytochrome P450 3A4 (P08684 whole entry): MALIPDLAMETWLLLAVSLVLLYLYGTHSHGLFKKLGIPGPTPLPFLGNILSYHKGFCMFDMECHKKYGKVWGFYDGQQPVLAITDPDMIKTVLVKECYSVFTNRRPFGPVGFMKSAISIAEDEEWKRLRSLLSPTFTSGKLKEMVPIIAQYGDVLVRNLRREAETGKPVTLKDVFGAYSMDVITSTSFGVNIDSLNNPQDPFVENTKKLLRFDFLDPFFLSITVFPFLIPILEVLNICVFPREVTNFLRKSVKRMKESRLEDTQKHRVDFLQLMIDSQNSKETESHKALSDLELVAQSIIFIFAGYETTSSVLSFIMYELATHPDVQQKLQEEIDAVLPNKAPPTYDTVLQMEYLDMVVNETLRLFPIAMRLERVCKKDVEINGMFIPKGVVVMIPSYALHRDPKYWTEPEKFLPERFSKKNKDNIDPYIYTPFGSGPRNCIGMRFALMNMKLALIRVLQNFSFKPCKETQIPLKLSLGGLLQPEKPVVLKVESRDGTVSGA

Cytochrome P450 1A2 = biological target: T1, Cytochrome P450 1A2 (Homo sapiens, UniProt P05177); assay: Inhibition of CYP1A2 (unknown origin); type: ADME
T1 sequence (P05177 whole entry): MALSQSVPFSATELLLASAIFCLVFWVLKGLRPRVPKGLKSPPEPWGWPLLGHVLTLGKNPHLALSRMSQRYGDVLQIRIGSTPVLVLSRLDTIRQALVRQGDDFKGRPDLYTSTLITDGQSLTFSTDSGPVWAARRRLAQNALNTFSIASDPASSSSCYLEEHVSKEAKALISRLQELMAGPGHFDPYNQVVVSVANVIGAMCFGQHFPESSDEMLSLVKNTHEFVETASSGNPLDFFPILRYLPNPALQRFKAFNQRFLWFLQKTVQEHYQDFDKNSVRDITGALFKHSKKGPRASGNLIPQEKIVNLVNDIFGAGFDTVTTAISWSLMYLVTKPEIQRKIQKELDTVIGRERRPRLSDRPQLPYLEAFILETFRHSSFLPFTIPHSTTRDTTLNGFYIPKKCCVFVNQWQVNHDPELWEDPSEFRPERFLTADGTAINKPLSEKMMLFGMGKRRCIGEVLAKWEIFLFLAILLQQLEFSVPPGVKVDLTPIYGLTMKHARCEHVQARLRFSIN

Cytochrome P450 2C19 = Cytochrome P450 2C19 (Homo sapiens, UniProt P33261); assay: Inhibition of CYP2C19 (unknown origin); type: ADME
Chain of Cytochrome P450 2C19 (P33261 whole entry): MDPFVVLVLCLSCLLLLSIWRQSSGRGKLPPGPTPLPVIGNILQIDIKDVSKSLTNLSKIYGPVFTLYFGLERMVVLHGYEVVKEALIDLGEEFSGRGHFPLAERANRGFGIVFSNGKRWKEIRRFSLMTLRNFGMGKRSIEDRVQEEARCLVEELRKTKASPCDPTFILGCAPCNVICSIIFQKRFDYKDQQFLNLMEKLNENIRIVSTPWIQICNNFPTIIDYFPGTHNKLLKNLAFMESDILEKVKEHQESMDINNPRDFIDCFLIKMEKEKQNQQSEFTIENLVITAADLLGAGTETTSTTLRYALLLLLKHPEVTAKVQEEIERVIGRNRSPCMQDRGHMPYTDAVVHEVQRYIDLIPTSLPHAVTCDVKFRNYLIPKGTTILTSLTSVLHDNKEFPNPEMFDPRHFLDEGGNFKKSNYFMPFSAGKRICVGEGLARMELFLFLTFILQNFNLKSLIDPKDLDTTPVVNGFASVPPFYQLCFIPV

Acetyl-CoA carboxylase 2 = Acetyl-CoA carboxylase 2 (Homo sapiens, UniProt O00763); assay: Inhibition of recombinant human ACC2 assessed as reduction in conversion of acetyl-CoA to malonyl-CoA incubated for 1 to 3 hrs with substrate by MALDI-TOF-MS analysis
Chain of Acetyl-CoA carboxylase 2 (O00763 whole entry): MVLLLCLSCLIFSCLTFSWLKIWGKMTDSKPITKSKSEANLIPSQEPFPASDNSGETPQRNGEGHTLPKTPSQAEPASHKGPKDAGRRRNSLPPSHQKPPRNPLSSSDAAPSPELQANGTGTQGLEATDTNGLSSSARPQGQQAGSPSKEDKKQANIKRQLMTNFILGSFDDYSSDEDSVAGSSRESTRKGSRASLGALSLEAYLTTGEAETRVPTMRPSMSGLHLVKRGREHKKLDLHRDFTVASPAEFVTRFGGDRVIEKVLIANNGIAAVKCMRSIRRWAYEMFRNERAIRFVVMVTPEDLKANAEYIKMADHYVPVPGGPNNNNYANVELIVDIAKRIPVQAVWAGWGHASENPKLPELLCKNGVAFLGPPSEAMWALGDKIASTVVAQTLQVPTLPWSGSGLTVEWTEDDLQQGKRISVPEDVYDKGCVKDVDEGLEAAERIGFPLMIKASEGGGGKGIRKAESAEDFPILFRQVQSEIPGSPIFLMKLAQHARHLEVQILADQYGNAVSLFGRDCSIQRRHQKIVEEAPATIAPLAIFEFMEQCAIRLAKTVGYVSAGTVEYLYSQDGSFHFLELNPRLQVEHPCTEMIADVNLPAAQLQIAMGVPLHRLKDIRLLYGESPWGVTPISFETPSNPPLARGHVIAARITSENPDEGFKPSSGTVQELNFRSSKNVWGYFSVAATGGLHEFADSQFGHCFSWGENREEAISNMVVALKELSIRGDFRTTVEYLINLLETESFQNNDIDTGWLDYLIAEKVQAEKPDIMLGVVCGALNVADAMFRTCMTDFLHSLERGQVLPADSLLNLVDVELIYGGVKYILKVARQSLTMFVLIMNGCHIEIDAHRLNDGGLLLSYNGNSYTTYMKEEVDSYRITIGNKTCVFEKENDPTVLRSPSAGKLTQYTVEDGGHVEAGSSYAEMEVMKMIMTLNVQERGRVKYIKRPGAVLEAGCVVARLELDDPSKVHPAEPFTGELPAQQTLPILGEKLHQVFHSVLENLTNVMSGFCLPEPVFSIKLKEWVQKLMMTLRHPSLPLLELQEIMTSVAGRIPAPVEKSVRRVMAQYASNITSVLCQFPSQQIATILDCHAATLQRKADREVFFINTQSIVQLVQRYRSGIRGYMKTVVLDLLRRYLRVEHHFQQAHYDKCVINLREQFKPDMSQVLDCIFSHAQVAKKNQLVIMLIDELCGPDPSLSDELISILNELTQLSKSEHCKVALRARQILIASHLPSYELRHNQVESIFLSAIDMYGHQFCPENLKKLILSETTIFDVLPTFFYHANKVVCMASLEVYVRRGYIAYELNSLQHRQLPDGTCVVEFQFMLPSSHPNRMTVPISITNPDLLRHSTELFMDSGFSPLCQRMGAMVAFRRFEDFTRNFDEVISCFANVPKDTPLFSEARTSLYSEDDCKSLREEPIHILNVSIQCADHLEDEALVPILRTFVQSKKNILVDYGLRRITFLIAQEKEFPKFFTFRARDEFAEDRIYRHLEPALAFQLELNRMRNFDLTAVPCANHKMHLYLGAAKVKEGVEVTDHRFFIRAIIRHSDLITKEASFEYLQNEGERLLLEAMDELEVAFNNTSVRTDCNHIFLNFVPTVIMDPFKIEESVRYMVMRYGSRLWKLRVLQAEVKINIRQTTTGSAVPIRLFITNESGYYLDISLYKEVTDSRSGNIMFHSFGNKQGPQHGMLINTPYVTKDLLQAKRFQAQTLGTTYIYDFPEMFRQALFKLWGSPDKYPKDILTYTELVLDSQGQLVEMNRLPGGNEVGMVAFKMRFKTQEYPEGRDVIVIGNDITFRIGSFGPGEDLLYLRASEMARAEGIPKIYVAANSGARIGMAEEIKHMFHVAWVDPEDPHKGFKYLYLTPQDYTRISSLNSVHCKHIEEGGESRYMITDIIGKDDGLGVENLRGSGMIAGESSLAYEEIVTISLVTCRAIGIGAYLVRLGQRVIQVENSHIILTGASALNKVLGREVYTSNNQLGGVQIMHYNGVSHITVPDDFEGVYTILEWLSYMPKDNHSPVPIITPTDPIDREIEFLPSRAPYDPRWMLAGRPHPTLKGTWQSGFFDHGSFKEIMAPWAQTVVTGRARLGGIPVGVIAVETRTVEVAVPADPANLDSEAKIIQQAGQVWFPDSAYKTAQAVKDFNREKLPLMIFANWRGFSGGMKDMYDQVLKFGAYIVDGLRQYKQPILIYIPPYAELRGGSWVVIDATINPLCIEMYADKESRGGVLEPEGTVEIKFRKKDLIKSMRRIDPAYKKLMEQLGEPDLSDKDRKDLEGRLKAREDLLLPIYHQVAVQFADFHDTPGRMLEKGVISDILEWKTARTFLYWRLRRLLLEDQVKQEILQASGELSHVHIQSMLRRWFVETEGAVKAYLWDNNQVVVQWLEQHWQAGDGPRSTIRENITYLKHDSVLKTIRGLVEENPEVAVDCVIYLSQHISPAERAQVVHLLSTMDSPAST

Acetyl-CoA carboxylase 1 = Acetyl-CoA carboxylase 1 (Homo sapiens, UniProt Q13085); assay: Inhibition of recombinant human ACC1 assessed as reduction in conversion of acetyl-CoA to malonyl-CoA incubated for 1 to 3 hrs with substrate by MALDI-TOF-MS analysis
Cytochrome P450 2C9 = Cytochrome P450 2C9 (Homo sapiens, UniProt P11712); assay: Inhibition of CYP2C9 (unknown origin); type: ADME
Chain of Cytochrome P450 2C9 (P11712 whole entry): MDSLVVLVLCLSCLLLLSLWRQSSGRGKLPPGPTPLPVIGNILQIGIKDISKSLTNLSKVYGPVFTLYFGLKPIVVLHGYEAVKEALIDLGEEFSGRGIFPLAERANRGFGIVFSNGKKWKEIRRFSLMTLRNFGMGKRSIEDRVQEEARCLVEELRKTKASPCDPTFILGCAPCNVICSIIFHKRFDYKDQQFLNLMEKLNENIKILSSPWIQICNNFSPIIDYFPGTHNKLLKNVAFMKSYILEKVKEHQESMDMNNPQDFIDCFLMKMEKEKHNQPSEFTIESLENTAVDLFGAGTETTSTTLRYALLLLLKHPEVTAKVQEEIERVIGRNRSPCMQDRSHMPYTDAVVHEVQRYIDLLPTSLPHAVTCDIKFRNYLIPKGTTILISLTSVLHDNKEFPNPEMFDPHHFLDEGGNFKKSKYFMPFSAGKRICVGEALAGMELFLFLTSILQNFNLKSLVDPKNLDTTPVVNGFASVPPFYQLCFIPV

[1] = Metabolic stability in human liver microsomes assessed as parent compound remaining after 30 mins; type: ADME, microsome; details: read-out: Stability
[2] = Metabolic stability in rat liver microsomes assessed as parent compound remaining after 30 mins; type: ADME, microsome; details: read-out: Stability
[3] = AUC (0 to 24 hrs) in rat at 50 mg/kg/day, po administered for 4 consecutive days measured on day 1; type: ADME, organism-based; design: dose 50 mg/kg/day, time < 24 hr, route oral; details: in vivo
[4] = Plasma concentration in C57BL/6 mouse at 2.5 mg/kg, po measured at 6 hrs post dose by LC-MS analysis; type: ADME, organism-based
[5] = Plasma concentration in C57BL/6 mouse at 1 mg/kg, po measured at 6 hrs post dose by LC-MS analysis; type: ADME, organism-based
[6] = AUC in C57BL/6 mouse at 2.5 mg/kg, po; type: ADME, organism-based; details: in vivo
[7] = Cmax in C57BL/6 mouse at 2.5 mg/kg, po; type: ADME, organism-based; design: dose 2.5 mg/kg, route oral; details: in vivo
[8] = Oral bioavailability in C57BL/6 mouse at 2.5 mg/kg; type: ADME, organism-based; details: in vivo
[9] = Total clearance in C57BL/6 mouse at 0.2 mg/kg, iv; type: ADME, organism-based; details: in vivo
Rattus norvegicus [10] = assay: Toxicity in rat assessed as histopathological lesions in heart at 50 mg/kg/day, po administered for 4 consecutive days; type: organism-based; details: in vivo
[11] = Cmax in rat at 50 mg/kg/day, po administered for 4 consecutive days measured on day 1; type: ADME, organism-based; design: dose 50 mg/kg/day, route oral; details: in vivo
Mus musculus [12] = assay: Suppression of malonyl-CoA levels in C57BL/6 mouse skeletal muscle at 2.5 mg/kg, po measured at 6 hrs post dose by LC-MS analysis relative to control; type: functional
Mus musculus [13] = assay: Suppression of malonyl-CoA levels in C57BL/6 mouse skeletal muscle at 1 mg/kg, po measured at 6 hrs post dose by LC-MS analysis relative to control; type: functional
Rattus norvegicus [14] = assay: Toxicity in rat assessed as abnormal clinical signs at 50 mg/kg/day, po administered for 4 consecutive days; type: organism-based; details: in vivo

Chain of Cytochrome P450 2D6 (P10635 whole entry): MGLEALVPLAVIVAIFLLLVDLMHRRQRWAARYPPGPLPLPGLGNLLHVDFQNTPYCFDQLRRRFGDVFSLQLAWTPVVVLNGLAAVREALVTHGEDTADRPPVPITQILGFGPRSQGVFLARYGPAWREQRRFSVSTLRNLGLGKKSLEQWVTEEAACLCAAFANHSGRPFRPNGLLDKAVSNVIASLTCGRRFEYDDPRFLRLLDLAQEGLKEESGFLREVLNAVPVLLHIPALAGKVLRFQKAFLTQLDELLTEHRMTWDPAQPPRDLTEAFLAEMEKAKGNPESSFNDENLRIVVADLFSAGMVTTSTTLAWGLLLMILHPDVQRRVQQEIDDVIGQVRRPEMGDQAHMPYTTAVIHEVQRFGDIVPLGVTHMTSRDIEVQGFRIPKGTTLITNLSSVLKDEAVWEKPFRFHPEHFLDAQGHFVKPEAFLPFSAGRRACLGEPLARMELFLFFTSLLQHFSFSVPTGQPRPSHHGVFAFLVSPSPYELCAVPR

| Compound | Ratio IC50 (Homo sapiens) | IC50 (Cytochrome P450 2D6) [µM] | IC50 (Cytochrome P450 3A4) [µM] | IC50 (Cytochrome P450 1A2) [µM] | IC50 (Cytochrome P450 2C19) [µM] | IC50 (Acetyl-CoA carboxylase 2) [µM] | IC50 (Acetyl-CoA carboxylase 1) [µM] | IC50 (Cytochrome P450 2C9) [µM] | remaining at 0.5 h [1] [%] | remaining at 0.5 h [2] [%] | also measured |
| --- | --- | --- | --- | --- | --- | --- | --- | --- | --- | --- | --- |
| CC(=O)N[C@@H](C)/C=C/c1cnc(Oc2ccc(OC(C)C)cc2)s1 | 809 | > 20 | > 20 | > 20 | > 20 | 0.066 | 53.4 | 4.4 | – | – | – |
| CC(=O)N[C@@H](C)/C=C/c1ccc(Oc2ccc3nc(C(C)C)sc3c2C(F)(F)F)nc1 | 126 | > 20 | 17 | > 20 | 18 | 0.059 | 7.45 | 14 | 87 | 83 | – |
| CCOc1ccc(Oc2ncc(/C=C/[C@H](C)NC(C)=O)s2)cc1 | > 1270 | > 20 | > 20 | > 20 | > 20 | 0.079 | > 100 | 8.6 | – | – | – |
| CC(=O)N[C@@H](C)/C=C/c1cnc(Oc2ccc(OCC3CC3)cc2Cl)s1 | 98 | > 20 | > 20 | > 20 | 14 | 0.013 | 1.27 | 3.5 | – | – | – |
| CCOc1nc2ccc(Oc3ccc(/C=C/[C@H](C)NC(C)=O)cn3)c(Cl)c2s1 | 1030 | > 20 | > 20 | > 20 | 18 | 0.0019 | 1.95 | 13 | 91 | 100 | AUC(0-t) at 24 h [3]: 620 µg·h/mL; concentration at 6 h [4]: 2620 ng/mL; concentration at 6 h [5]: 1130 ng/mL; AUC [6]: 99.8 µg·h/mL; Cmax [7]: 4230 ng/mL; bioavailability [8]: 83.5%; clearance [9]: 0.354 mL/min/kg; Activity (Rattus norvegicus [10]): Non-Toxic; Cmax [11]: 34600 ng/mL; Activity (Mus musculus [12]): 41%; Activity (Mus musculus [13]): 20%; Activity (Rattus norvegicus [14]): Non-Toxic |
| CC(=O)N[C@@H](C)/C=C/c1ccc(Oc2ccc(OCCF)cc2Cl)nc1 | > 537 | > 20 | > 20 | > 20 | > 20 | 0.186 | > 100 | > 20 | – | – | – |
| CC(=O)N[C@@H](C)/C=C/c1ccc(Oc2ccc3sc(C(C)C)nc3c2Cl)nc1 | 21 | > 20 | > 20 | > 20 | 11 | 0.04 | 0.858 | 14 | 88 | 77 | – |
| CC(=O)N[C@@H](C)/C=C/c1ccc(Oc2ccc(OCC(F)F)cc2Cl)nc1 | > 1190 | > 20 | > 20 | > 20 | > 20 | 0.084 | > 100 | > 20 | – | – | – |
| CC(=O)N[C@@H](C)/C=C/c1ccc(Oc2ccc3nc(C(C)(C)O)sc3c2Cl)nc1 | 315 | > 20 | > 20 | > 20 | > 20 | 0.01 | 3.15 | 17 | 92 | 96 | – |
| CC(=O)N[C@@H](C)/C=C/c1ccc(Oc2ccc(OCC3CC3)cc2Cl)nc1 | 140 | > 20 | 16 | > 20 | > 20 | – | 0.964 | 9.5 | – | – | – |
| CC(=O)N[C@@H](C)/C=C/c1ccc(Oc2ccc3nc(C(C)C)sc3c2F)nc1 | 17 | > 20 | > 20 | > 20 | > 20 | 0.0021 | 0.035 | > 20 | 84 | 51 | – |
| CC(=O)N[C@@H](C)/C=C/c1cnc(Oc2ccc(OCC3CC3)cc2)s1 | 63 | > 20 | > 20 | > 20 | 18 | 0.031 | 1.94 | 8.2 | – | – | – |
| COC(=O)N[C@@H](C)/C=C/c1cnc(Oc2ccc(OC(C)C)cc2)s1 | > 1320 | > 20 | > 20 | > 20 | 6.5 | 0.076 | > 100 | 2.7 | – | – | – |
| CC(=O)N[C@@H](C)/C=C/c1ccc(Oc2ccc(OCC3CC3)cc2Cl)nn1 | > 327 | > 20 | 18 | > 20 | > 20 | 0.306 | > 100 | > 20 | – | – | – |
| CC(=O)N[C@@H](C)/C=C/c1ccc(Oc2ccc3nc(C)sc3c2Cl)nc1 | 469 | > 20 | > 20 | > 20 | > 20 | 0.026 | 12.2 | > 20 | 87 | 75 | – |
| CC(=O)N[C@@H](C)/C=C/c1cnc(Oc2ccc(OCC3CC3)cc2Cl)n1C | 82 | > 20 | > 20 | > 20 | > 20 | – | 37.2 | 10 | – | – | – |
| CCOc1ccc(Oc2ccc(/C=C/[C@H](C)NC(C)=O)cn2)c(Cl)c1 | > 2170 | > 20 | > 20 | > 20 | > 20 | 0.046 | > 100 | > 20 | – | – | – |
| CC(=O)N[C@@H](C)/C=C/c1ccc(Oc2cc3sc(C)nc3cc2Cl)nc1 | 110 | > 20 | > 20 | > 20 | > 20 | 0.473 | 52.1 | > 20 | 94 | 83 | – |
| CC(=O)N[C@@H](C)/C=C/c1nnc(Oc2ccc(OCC3CC3)cc2Cl)s1 | > 395 | > 20 | > 20 | > 20 | > 20 | 0.253 | > 100 | 15 | – | – | – |
| CC(=O)N[C@@H](C)/C=C/c1cnc(Oc2ccc(OCC3CC3)cc2Cl)cn1 | 30 | > 20 | > 20 | > 20 | > 20 | 0.025 | 0.75 | > 20 | – | – | – |
| CC(=O)N[C@@H](C)/C=C/c1cnc(Oc2ccc(OCC3CC3)cc2Cl)nc1 | > 2080 | > 20 | > 20 | > 20 | > 20 | 0.048 | > 100 | > 20 | – | – | – |
| CC(=O)N[C@@H](C)/C=C/c1ccc(Oc2ccc3nc(C(C)C)sc3c2Cl)nc1 | 70 | > 20 | 19 | > 20 | 18 | 0.0043 | 0.303 | 13 | 83 | 52 | – |
